Tested on: A375 human melanoma xenografts
Assay: In vivo therapeutic efficacy in A375 human melanoma xenografts (tumor volume, T/C, TGI), Example 14
Parameters: species or system human tumor in female BALB/c nude mice
Settings: for Tumor volume: mean ± SEM; for T/C / TGI: PG-D21
Description: Agents were tested in the A375 human melanoma xenografts. Compound 26 and Compound 141 were administered to BALB/c nude mice bearing A375 tumors from PG-DO and dosed via PO twice a day (BID) or third a day (TIP) or dosed P daily (QD) from PG-D. Dabrafenib was administered to BALB/c nude mice bearing A375 tumors from PG-D1 and dosed via P daily (QD). Compound 26 was dosed at 1.5 mg/kg (QD), 2 mg/kg (TID), 3 mg/kg (BID), 6 mg/kg (QD) and 10 mg/kg (BID) for 21 days. Compound 141 was dosed at 0.75 mg/kg (BID), 1 mg/kg (TID), 1.5 mg/kg (BID), 3 mg/kg (QD) and 5 mg/kg (BID) for 21 days. Dabrafenib was dosed at 100 mg/kg for 21 days. This study was non-GLP.
One hundred and thirty-eight female BALB/c nude Mus Musculus mice procured from Shanghai Lingchang Biological Science and Technology Co., LTD between the ages of six to eight weeks and with body weight between eighteen and twenty-two grams were used for the study. A spare mouse was also procured.
The A375 tumor cells were maintained in vitro in DMEM medium supplemented with 10% fetal bovine serum and 1% Penicillin-Streptomycin at 37° C. in an atmosphere of 5% CO2 in air. The tumor cells were routinely sub-cultured twice weekly. The cells growing in an exponential growth phase were harvested and counted for tumor inoculation.
Each mouse was inoculated subcutaneously at the right flank with A375 cells (5×10^6) in 0.2 mL of PBS supplemented with Matrigel (PBS: Matrigel=1:1) for tumor development. Animals were grouped for efficacy study on day 15 after tumor inoculation when the average tumor volume reached 220 mm^3. The test articles administration and the animal numbers in each group are shown in the above experimental Table 75.
At the time of routine monitoring, the animals were checked daily for any effects of tumor growth and treatments on normal behavior such as mobility, food and water consumption (by looking only), body weight gain/loss (body weights were measured twice weekly), eye/hair matting and any other abnormal effect as stated in the protocol. Death and observed clinical signs were recorded on the basis of the numbers of animals within each subset.
Prior to the onset of drug treatment, mice were measured for tumor size in two dimensions using a caliper, and the tumor volume (mm^3) was calculated using formula V=0.5 a×b^2 where a and b are the long and short diameters of the tumor in mm, respectively. Mice were randomized into different treatment groups based on the tumor volume.
The major endpoint was to see if the tumor growth could be delayed or mice could be cured. The tumor size was then used for calculations of T/C value. The T/C value (in percent) is an indication of antitumor effectiveness; T and C are the mean volumes of the treated and control groups, respectively on specified day.
TGI was calculated for each group using the formula: TGI (%)=[1−(Ti−T0)/(Ci−C0)]×100; Ti is the average tumor volume of a treatment group on a given day, T0 is the average tumor volume of the treatment group on the day of treatment start, Ci is the average tumor volume of the vehicle control group on the same day with Ti, and C0 is the average tumor volume of the vehicle group on the day of treatment start.
A one-way ANOVA followed by Dunnett's multiple comparison test was performed to compare tumor volume among vehicle group (Group 1) and treatment groups (Group 2-Group 12). All data were analyzed using GraphPad Prism, ns indicates p>0.05, * indicates p<0.05, ** indicates p<0.01, *** indicates p<0.001 and **** indicates p<0.0001.
Tumor growth inhibition of Compound 26, Compound 141 and dabrafenib in the treatment of female BALB/c nude mice bearing A375 xenografts was calculated based on tumor volume measured on […]. TGI and T/C were calculated respectively and the data are detailed in Table 82.

Work on `CCN(C)S(=O)(=O)Nc1ccc(F)c(Oc2ccc3ncn(C4CC5(CCN(C6CC7(C6)CN(c6cc8c(cc6F)c(N6CCC(=O)NC6=O)nn8C)C7)CC5)C4)c(=O)c3c2)c1C#N` (centres unmarked) [Compound 141, 6-[2-cyano-3-[[ethyl(methyl)sulfamoyl]amino]-6-fluoro-phenoxy]-3-[7-[2-[3-(2,4-dioxohexahydropyrimidin-1-yl)-5-fluoro-1-methyl-indazol-6-yl]-2-azaspiro[3.3]heptan-6-yl]-7-azaspiro[3.5]nonan-2-yl]-4-oxo-quinazoline] yielded a Tumor volume (0.75 mg/kg p.o. BID x 21 days, day 0) of 220 ± 16 mm^3, a Tumor volume (0.75 mg/kg p.o. BID x 21 days, day 4) of 279 ± 20 mm^3 and a Tumor volume (0.75 mg/kg p.o. BID x 21 days, day 7) of 299 ± 25 mm^3. The Tumor volume (0.75 mg/kg p.o. BID x 21 days, day 11) was 305 ± 27 mm^3, the Tumor volume (0.75 mg/kg p.o. BID x 21 days, day 14) was 333 ± 29 mm^3 and the Tumor volume (0.75 mg/kg p.o. BID x 21 days, day 18) was 465 ± 48 mm^3. It also gave a Tumor volume (0.75 mg/kg p.o. BID x 21 days, day 21) of 634 ± 67 mm^3, a Tumor volume (0.75 mg/kg p.o. BID x 21 days, day 25 (dosing-free regrowth)) of 1230 ± 98 mm^3 and a Tumor volume (0.75 mg/kg p.o. BID x 21 days, day 28 (dosing-free regrowth)) of 1536 ± 103 mm^3. It also gave a Tumor volume (0.75 mg/kg p.o. BID x 21 days, day 32 (dosing-free regrowth)) of 1821 ± 140 mm^3, a Tumor volume (0.75 mg/kg p.o. BID x 21 days, day 35 (dosing-free regrowth)) of 2230 ± 178 mm^3 and a Tumor volume (0.75 mg/kg p.o. BID x 21 days, day 39 (dosing-free regrowth)) of 2413 ± 86 mm^3. The Tumor volume (0.75 mg/kg p.o. BID x 21 days, day 42 (dosing-free regrowth)) was 2786 ± 127 mm^3, the Tumor volume (0.75 mg/kg p.o. BID x 21 days, day 46 (dosing-free regrowth)) was 3213 ± 101 mm^3 and the “Tumor Size on PG-D21 (Mean ± SEM)” value (0.75 mg/kg p.o. BID × 21 days) was 634 ± 67 mm^3. The T/C (0.75 mg/kg p.o. BID × 21 days) was 33.7%, the TGI (0.75 mg/kg p.o. BID × 21 days) was 75.1% and the Tumor volume (1 mg/kg p.o. TID x 21 days, day 0) was 220 ± 16 mm^3. For the same compound, the Tumor volume (1 mg/kg p.o. TID x 21 days, day 4) was 199 ± 14 mm^3, the Tumor volume (1 mg/kg p.o. TID x 21 days, day 7) was 174 ± 12 mm^3 and the Tumor volume (1 mg/kg p.o. TID x 21 days, day 11) was 131 ± 11 mm^3. The Tumor volume (1 mg/kg p.o. TID x 21 days, day 14) was 99 ± 11 mm^3, the Tumor volume (1 mg/kg p.o. TID x 21 days, day 18) was 117 ± 18 mm^3 and the Tumor volume (1 mg/kg p.o. TID x 21 days, day 21) was 138 ± 22 mm^3. For the same compound, the Tumor volume (1 mg/kg p.o. TID x 21 days, day 25 (dosing-free regrowth)) was 303 ± 94 mm^3, the Tumor volume (1 mg/kg p.o. TID x 21 days, day 28 (dosing-free regrowth)) was 492 ± 132 mm^3 and the Tumor volume (1 mg/kg p.o. TID x 21 days, day 32 (dosing-free regrowth)) was 718 ± 197 mm^3. The Tumor volume (1 mg/kg p.o. TID x 21 days, day 35 (dosing-free regrowth)) was 933 ± 232 mm^3, the Tumor volume (1 mg/kg p.o. TID x 21 days, day 39 (dosing-free regrowth)) was 1233 ± 240 mm^3 and the Tumor volume (1 mg/kg p.o. TID x 21 days, day 42 (dosing-free regrowth)) was 1591 ± 302 mm^3. It also gave a Tumor volume (1 mg/kg p.o. TID x 21 days, day 46 (dosing-free regrowth)) of 2017 ± 443 mm^3, a Tumor volume (1 mg/kg p.o. TID x 21 days, day 49 (dosing-free regrowth)) of 2117 ± 505 mm^3 and a Tumor volume (1 mg/kg p.o. TID x 21 days, day 53 (dosing-free regrowth)) of 2166 ± 495 mm^3. For the same compound, the Tumor volume (1 mg/kg p.o. TID x 21 days, day 56 (dosing-free regrowth)) was 2162 ± 633 mm^3, the “Tumor Size on PG-D21 (Mean ± SEM)” value (1 mg/kg p.o. TID × 21 days) was 138 ± 22 mm^3 and the T/C (1 mg/kg p.o. TID × 21 days) was 7.3%. The TGI (1 mg/kg p.o. TID × 21 days) was 104.9%, the Tumor volume (1.5 mg/kg p.o. BID x 21 days, day 0) was 220 ± 15 mm^3 and the Tumor volume (1.5 mg/kg p.o. BID x 21 days, day 4) was 245 ± 18 mm^3. The Tumor volume (1.5 mg/kg p.o. BID x 21 days, day 7) was 213 ± 17 mm^3, the Tumor volume (1.5 mg/kg p.o. BID x 21 days, day 11) was 180 ± 13 mm^3 and the Tumor volume (1.5 mg/kg p.o. BID x 21 days, day 14) was 159 ± 13 mm^3. The Tumor volume (1.5 mg/kg p.o. BID x 21 days, day 18) was 166 ± 14 mm^3, the Tumor volume (1.5 mg/kg p.o. BID x 21 days, day 21) was 208 ± 21 mm^3 and the Tumor volume (1.5 mg/kg p.o. BID x 21 days, day 25 (dosing-free regrowth)) was 476 ± 63 mm^3. For the same compound, the Tumor volume (1.5 mg/kg p.o. BID x 21 days, day 28 (dosing-free regrowth)) was 773 ± 76 mm^3 and the Tumor volume (1.5 mg/kg p.o. BID x 21 days, day 32 (dosing-free regrowth)) was 946 ± 93 mm^3.
